Measurements taken from patent publication US11497212B2, “Substituted thiophenyl uracils, salts thereof and the use thereof as herbicidal agents” (Syngenta Crop Protection AG, priority 2017, dated 2022).

How the values were obtained:
Format in all cases: in vivo
Abutilon theophrasti [1] = test: Herbicidal action post-emergence (greenhouse pot trial); details: scored visually after about 3 weeks vs untreated controls
Procedure, shortened: (§1)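 One-leaf-stage seedlings, 2–3 weeks old, are treated on their green parts with an aqueous emulsion or suspension of the test compound (WP or EC, 0.5% additive) using 600 L/ha of water at up to 80 g/ha. About 3 weeks on, percent kill is estimated visually versus untreated plants.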

Amaranthus retroflexus [2] = test: as above; details: scored visually after about 3 weeks vs untreated controls
Procedure, shortened: as §1

Digitaria sanguinalis [3] = test: as above; details: application rate 20 g/ha
Procedure, shortened: as §1

Echinochloa crus-galli [4] = test: as above; details: scored visually after about 3 weeks vs untreated controls
Procedure, shortened: as §1

Matricaria inodora [5] = test: as above; details: scored visually after about 3 weeks vs untreated controls
Procedure, shortened: as §1

Pharbitis purpurea [6] = test: as above
Procedure, shortened: as §1

Polygonum convolvulus [7] = test: as above; details: scored visually after about 3 weeks vs untreated controls
Procedure, shortened: as §1

Setaria viridis [8] = test: as above; details: scored visually after about 3 weeks vs untreated controls
Procedure, shortened: as §1

Stellaria media [9] = test: as above; details: scored visually after about 3 weeks vs untreated controls
Procedure, shortened: as §1

Veronica persica [10] = test: as above
Procedure, shortened: as §1

Viola tricolor [11] = test: as above
Procedure, shortened: as §1

Oryza sativa [12] = test: Crop compatibility post-emergence (greenhouse pot trial); details: application rate 20 g/ha
Procedure, shortened: (§2)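 Visual % rating about 3 weeks post-treatment against untreated plants (100% dead, 0% unaffected). Post-emergence spray of aqueous WP/EC preparations with 0.5% additive at 600 L/ha water, applied at one-leaf stage to greenhouse pot-grown crops in sandy loam.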

Triticum aestivum = test: as above; details: application rate 20 g/ha
Procedure, shortened: as §2

Zea mays [13] = test: as above
Procedure, shortened: as §2

Abutilon theophrasti [14] = test: Herbicidal action pre-emergence (greenhouse pot trial); details: scored after about 3 weeks
Procedure, shortened: (§3)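 Efficacy (%) was estimated visually about 3 wk post-application by comparing treated pots with untreated controls, where 0% denotes plants resembling controls and 100% denotes dead plants. Dose was 320 g/ha or less.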

Amaranthus retroflexus [15] = test: as above; details: scored after about 3 weeks
Procedure, shortened: as §3

Digitaria sanguinalis [16] = test: as above; details: application rate 80 g/ha
Procedure, shortened: as §3

Echinochloa crus-galli [17] = test: as above; details: scored after about 3 weeks
Procedure, shortened: as §3

Matricaria inodora [18] = test: as above; details: scored after about 3 weeks
Procedure, shortened: as §3

Pharbitis purpurea [19] = test: as above
Procedure, shortened: as §3

Polygonum convolvulus [20] = test: as above; details: application rate 80 g/ha, scored after about 3 weeks
Procedure, shortened: as §3

Setaria viridis [21] = test: as above; details: scored after about 3 weeks
Procedure, shortened: as §3

Stellaria media [22] = test: as above; details: scored after about 3 weeks
Procedure, shortened: as §3

Veronica persica [23] = test: as above
Procedure, shortened: as §3

Viola tricolor [24] = test: as above; details: scored after about 3 weeks
Procedure, shortened: as §3

Glycine max = test: Crop compatibility pre-emergence (greenhouse pot trial); details: application rate 80 g/ha, effect vs untreated controls
Procedure, shortened: (§4)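 After soil-surface application of each compound to freshly sown pots (aqueous spray, 600 L/ha, 0.5% additive), plants grew under greenhouse conditions. Around 3 weeks later, injury was estimated visually on a 0–100% scale against controls.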

Oryza sativa [25] = test: as above; details: effect vs untreated controls
Procedure, shortened: as §4

Zea mays [26] = test: as above; details: application rate 80 g/ha, effect vs untreated controls
Procedure, shortened: as §4

Alopecurus myosuroides [27] = test: Herbicidal action post-emergence (greenhouse pot trial); details: application rate 80 g/ha, scored visually after about 3 weeks vs untreated controls
Procedure, shortened: as §1

Avena fatua [28] = test: as above; details: application rate 80 g/ha, scored visually after about 3 weeks vs untreated controls
Procedure, shortened: as §1

Alopecurus myosuroides [29] = test: Herbicidal action pre-emergence (greenhouse pot trial); details: application rate 320 g/ha, scored after about 3 weeks
Procedure, shortened: as §3

Avena fatua [30] = test: as above; details: application rate 320 g/ha
Procedure, shortened: as §3

Q: Which “Abutilon theophrasti (Efficacy in %)” value (Abutilon theophrasti [1]; application rate 20 g/ha) does the source give for `CCC(Sc1cc(-n2c(=O)cc(C(F)(F)F)n(C)c2=O)c(F)cc1Cl)C(=O)OCC1CCCO1` (centres unmarked) [I.2-71] here?
A: 100%

Q: What about the “Amaranthus retroflexus (Efficacy in %)” value (Amaranthus retroflexus [2]; application rate 20 g/ha) of the same compound?
A: 100%

Q: And the “Digitaria sanguinalis (Efficacy in %)” value (Digitaria sanguinalis [3])?
A: 100%

Q: What about the “Echinochloa crus-galli (Efficacy in %)” value (Echinochloa crus-galli [4]; application rate 20 g/ha) of the same compound?
A: 80%

Q: What about the “Matricaria inodora (Efficacy in %)” value (Matricaria inodora [5]; application rate 20 g/ha) of the same compound?
A: 100%

Q: And the “Pharbitis purpurea (Efficacy in %)” value (Pharbitis purpurea [6]; application rate 20 g/ha)?
A: 100%

Q: What about the “Polygonum convolvulus (Efficacy in %)” value (Polygonum convolvulus [7]; application rate 20 g/ha) of the same compound?
A: 100%

Q: And the “Setaria viridis (Efficacy in %)” value (Setaria viridis [8]; application rate 20 g/ha)?
A: 90%

Q: And the “Stellaria media (Efficacy in %)” value (Stellaria media [9]; application rate 20 g/ha)?
A: 100%

Q: And the “Veronica persica (Efficacy in %)” value (Veronica persica [10]; application rate 20 g/ha)?
A: 100%

Q: And the “Viola tricolor (Efficacy in %)” value (Viola tricolor [11]; application rate 20 g/ha)?
A: 100%

Q: What about the “Oryza sativa (Efficacy in %)” value (Oryza sativa [12]) of the same compound?
A: 20%

Q: And the “Triticum aestivum (Efficacy in %)” value (Triticum aestivum)?
A: 20%

Q: And the “Zea mays (Efficacy in %)” value (Zea mays [13]; application rate 5 g/ha)?
A: 0%

Q: What about the “Abutilon theophrasti (Efficacy in %)” value (Abutilon theophrasti [14]; application rate 80 g/ha) of the same compound?
A: 100%

Q: What about the “Amaranthus retroflexus (Efficacy in %)” value (Amaranthus retroflexus [15]; application rate 80 g/ha) of the same compound?
A: 100%

Q: What about the “Digitaria sanguinalis (Efficacy in %)” value (Digitaria sanguinalis [16]) of the same compound?
A: 100%

Q: What about the “Echinochloa crus-galli (Efficacy in %)” value (Echinochloa crus-galli [17]; application rate 80 g/ha) of the same compound?
A: 100%

Q: What about the “Matricaria inodora (Efficacy in %)” value (Matricaria inodora [18]; application rate 80 g/ha) of the same compound?
A: 100%

Q: What about the “Pharbitis purpurea (Efficacy in %)” value (Pharbitis purpurea [19]; application rate 80 g/ha) of the same compound?
A: 100%

Q: And the “Polygonum convolvulus (Efficacy in %)” value (Polygonum convolvulus [20])?
A: 100%

Q: And the “Setaria viridis (Efficacy in %)” value (Setaria viridis [21]; application rate 80 g/ha)?
A: 100%

Q: What about the “Stellaria media (Efficacy in %)” value (Stellaria media [22]; application rate 80 g/ha) of the same compound?
A: 100%

Q: What about the “Veronica persica (Efficacy in %)” value (Veronica persica [23]; application rate 80 g/ha) of the same compound?
A: 100%

Q: And the “Viola tricolor (Efficacy in %)” value (Viola tricolor [24]; application rate 80 g/ha)?
A: 100%

Q: What about the “Glycine max (Efficacy in %)” value (Glycine max) of the same compound?
A: 0%

Q: And the “Oryza sativa (Efficacy in %)” value (Oryza sativa [25]; application rate 20 g/ha)?
A: 0%

Q: What about the “Zea mays (Efficacy in %)” value (Zea mays [26]) of the same compound?
A: 10%

Q: Which “Abutilon theophrasti (Efficacy in %)” value (Abutilon theophrasti [1]; application rate 20 g/ha) does the source give for `CC(Sc1cc(-n2c(=O)cc(C(F)(F)F)n(C)c2=O)c(F)cc1Cl)C(=O)OCC1CCCS1` (centres unmarked) [I.1-81] here?
A: 100%

Q: What about the “Amaranthus retroflexus (Efficacy in %)” value (Amaranthus retroflexus [2]; application rate 20 g/ha) of the same compound?
A: 100%

Q: And the “Matricaria inodora (Efficacy in %)” value (Matricaria inodora [5]; application rate 20 g/ha)?
A: 90%

Q: And the “Polygonum convolvulus (Efficacy in %)” value (Polygonum convolvulus [7]; application rate 20 g/ha)?
A: 90%

Q: And the “Veronica persica (Efficacy in %)” value (Veronica persica [10]; application rate 20 g/ha)?
A: 100%

Q: What about the “Viola tricolor (Efficacy in %)” value (Viola tricolor [11]; application rate 20 g/ha) of the same compound?
A: 100%

Q: What about the “Oryza sativa (Efficacy in %)” value (Oryza sativa [12]) of the same compound?
A: 0%

Q: What about the “Triticum aestivum (Efficacy in %)” value (Triticum aestivum) of the same compound?
A: 20%

Q: And the “Zea mays (Efficacy in %)” value (Zea mays [13]; application rate 20 g/ha)?
A: 10%

Q: What about the “Abutilon theophrasti (Efficacy in %)” value (Abutilon theophrasti [14]; application rate 80 g/ha) of the same compound?
A: 100%

Q: And the “Amaranthus retroflexus (Efficacy in %)” value (Amaranthus retroflexus [15]; application rate 80 g/ha)?
A: 100%

Q: What about the “Matricaria inodora (Efficacy in %)” value (Matricaria inodora [18]; application rate 80 g/ha) of the same compound?
A: 80%

Q: What about the “Polygonum convolvulus (Efficacy in %)” value (Polygonum convolvulus [20]) of the same compound?
A: 100%

Q: What about the “Veronica persica (Efficacy in %)” value (Veronica persica [23]; application rate 80 g/ha) of the same compound?
A: 80%

Q: What about the “Viola tricolor (Efficacy in %)” value (Viola tricolor [24]; application rate 80 g/ha) of the same compound?
A: 100%

Q: What about the “Glycine max (Efficacy in %)” value (Glycine max) of the same compound?
A: 0%

Q: And the “Zea mays (Efficacy in %)” value (Zea mays [26])?
A: 0%

Q: For `Cn1c(C(F)(F)F)cc(=O)n(-c2cc(SCC(=O)NCC3CCCO3)c(Cl)cc2F)c1=O` (centres unmarked) [I.8-271], which “Abutilon theophrasti (Efficacy in %)” value (Abutilon theophrasti [1]; application rate 80 g/ha) is on record?
A: 100%

Q: And the “Alopecurus myosuroides (Efficacy in %)” value (Alopecurus myosuroides [27])?
A: 100%

Q: And the “Amaranthus retroflexus (Efficacy in %)” value (Amaranthus retroflexus [2]; application rate 80 g/ha)?
A: 100%

Q: What about the “Avena fatua (Efficacy in %)” value (Avena fatua [28]) of the same compound?
A: 90%

Q: What about the “Echinochloa crus-galli (Efficacy in %)” value (Echinochloa crus-galli [4]; application rate 80 g/ha) of the same compound?
A: 80%

Q: And the “Matricaria inodora (Efficacy in %)” value (Matricaria inodora [5]; application rate 80 g/ha)?
A: 100%

Q: And the “Pharbitis purpurea (Efficacy in %)” value (Pharbitis purpurea [6]; application rate 80 g/ha)?
A: 100%

Q: What about the “Polygonum convolvulus (Efficacy in %)” value (Polygonum convolvulus [7]; application rate 80 g/ha) of the same compound?
A: 100%

Q: And the “Setaria viridis (Efficacy in %)” value (Setaria viridis [8]; application rate 80 g/ha)?
A: 100%

Q: And the “Stellaria media (Efficacy in %)” value (Stellaria media [9]; application rate 80 g/ha)?
A: 100%

Q: What about the “Veronica persica (Efficacy in %)” value (Veronica persica [10]; application rate 80 g/ha) of the same compound?
A: 100%

Q: And the “Viola tricolor (Efficacy in %)” value (Viola tricolor [11]; application rate 80 g/ha)?
A: 100%

Q: What about the “Zea mays (Efficacy in %)” value (Zea mays [13]; application rate 80 g/ha) of the same compound?
A: 20%

Q: And the “Abutilon theophrasti (Efficacy in %)” value (Abutilon theophrasti [14]; application rate 320 g/ha)?
A: 100%

Q: And the “Alopecurus myosuroides (Efficacy in %)” value (Alopecurus myosuroides [29])?
A: 90%

Q: And the “Amaranthus retroflexus (Efficacy in %)” value (Amaranthus retroflexus [15]; application rate 320 g/ha)?
A: 100%

Q: What about the “Avena fatua (Efficacy in %)” value (Avena fatua [30]) of the same compound?
A: 90%

Q: And the “Echinochloa crus-galli (Efficacy in %)” value (Echinochloa crus-galli [17]; application rate 320 g/ha)?
A: 80%

Q: What about the “Matricaria inodora (Efficacy in %)” value (Matricaria inodora [18]; application rate 320 g/ha) of the same compound?
A: 100%

Q: What about the “Pharbitis purpurea (Efficacy in %)” value (Pharbitis purpurea [19]; application rate 320 g/ha) of the same compound?
A: 100%

Q: And the “Setaria viridis (Efficacy in %)” value (Setaria viridis [21]; application rate 320 g/ha)?
A: 100%

Q: What about the “Stellaria media (Efficacy in %)” value (Stellaria media [22]; application rate 320 g/ha) of the same compound?
A: 90%

Q: What about the “Veronica persica (Efficacy in %)” value (Veronica persica [23]; application rate 320 g/ha) of the same compound?
A: 100%

Q: What about the “Viola tricolor (Efficacy in %)” value (Viola tricolor [24]; application rate 320 g/ha) of the same compound?
A: 100%

Q: And the “Oryza sativa (Efficacy in %)” value (Oryza sativa [25]; application rate 80 g/ha)?
A: 0%

Q: What about the “Zea mays (Efficacy in %)” value (Zea mays [26]) of the same compound?
A: 20%
